Source: patent EP4745137A1 (Gluetacs Therapeutics (Shanghai) Co., Ltd., priority 2023, dated 2025)

Experiments:
Type in all cases: cell-based
Conditions in all cases: 24 hours of compound treatment, 50 nM and 500 nM tested (concentration behind the class not stated)
[1] = biological target: T1, IKZF3 (Homo sapiens, UniProt Q96SW2+Q9UKT9); experiment: Western-blot assay of substrate protein degradation in hPBMCs, IKZF3
T1 construct: endogenous in cells; host or cells: hPBMCs (Milecell Biotechnologies)
Procedure: (§1) After 24 hours of compounds treatment, cells were harvested and lysed in RIPA protein lysate containing protease inhibitors on ice for 30 min, followed by centrifugation. The supernatant was aspirated as the extracted total cell protein. The protein concentration of the supernatant was determined using the conventional BCA (Bicinchoninic Acid) assay. • (2) To the collected supernatant, 5X SDS sample loading buffer was added, followed by denaturation at 95°C for 5 minutes. The denatured samples were then separated by SDS-PAGE electrophoresis on a polyacrylamide gel, transferred onto a nitrocellulose membrane (0.45 µm NC membrane), blocked with blocking buffer at room temperature for 1 hour, and subjected to antibody incubation and development procedures according to the antibody manufacturer's instructions (Cell Signaling Technology Company). […]
(§2) Target protein remaining (%) refers to the percentage of target protein remaining in cells after treatment with protein degrader compounds.
(§3) Calculation method for target protein remaining (%): Use ImageJ software to measure grayscale values of Western blot bands from drug (protein degrader)-treated samples. The grayscale value of drug-treated bands is divided by that of internal control protein bands, and the resulting quotient is normalized to obtain the relative percentage of remaining target protein after protein degrader treatment. Target protein degradation rate(%) = 1−target protein remaining(%). [formula]

[2] = biological target: T2, GSPT1 (Homo sapiens, UniProt P15170+Q96SW2); experiment: Western-blot assay of substrate protein degradation in hPBMCs, GSPT1
T2 construct: endogenous in cells; host or cells: hPBMCs (Milecell Biotechnologies)
T2 sequence (P15170 whole entry): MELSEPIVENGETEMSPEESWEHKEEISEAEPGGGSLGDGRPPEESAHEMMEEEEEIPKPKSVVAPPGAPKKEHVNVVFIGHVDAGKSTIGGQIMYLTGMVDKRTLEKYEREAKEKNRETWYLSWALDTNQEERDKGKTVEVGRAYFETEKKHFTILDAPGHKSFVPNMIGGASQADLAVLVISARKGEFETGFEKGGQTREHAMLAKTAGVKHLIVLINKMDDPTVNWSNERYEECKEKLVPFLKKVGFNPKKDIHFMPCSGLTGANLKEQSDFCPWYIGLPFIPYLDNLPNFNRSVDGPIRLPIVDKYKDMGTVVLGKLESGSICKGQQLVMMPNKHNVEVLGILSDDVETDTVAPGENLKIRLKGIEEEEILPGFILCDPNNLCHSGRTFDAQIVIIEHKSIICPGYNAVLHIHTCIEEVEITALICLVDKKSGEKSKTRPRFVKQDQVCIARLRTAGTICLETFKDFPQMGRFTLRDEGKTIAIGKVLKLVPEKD
T2 sequence (Q96SW2 whole entry): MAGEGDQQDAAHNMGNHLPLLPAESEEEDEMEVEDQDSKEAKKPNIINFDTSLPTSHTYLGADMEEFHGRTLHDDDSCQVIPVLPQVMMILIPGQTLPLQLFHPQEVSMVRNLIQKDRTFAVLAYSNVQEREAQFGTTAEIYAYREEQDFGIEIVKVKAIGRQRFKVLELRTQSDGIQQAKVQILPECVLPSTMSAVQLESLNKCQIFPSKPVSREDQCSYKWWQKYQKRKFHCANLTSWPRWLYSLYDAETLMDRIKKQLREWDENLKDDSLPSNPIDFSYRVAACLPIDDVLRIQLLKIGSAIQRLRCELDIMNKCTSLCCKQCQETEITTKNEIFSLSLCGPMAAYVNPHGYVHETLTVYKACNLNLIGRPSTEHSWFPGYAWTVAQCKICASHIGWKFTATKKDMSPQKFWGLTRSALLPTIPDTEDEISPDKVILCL
T2 sequence (Q16531 whole entry partner): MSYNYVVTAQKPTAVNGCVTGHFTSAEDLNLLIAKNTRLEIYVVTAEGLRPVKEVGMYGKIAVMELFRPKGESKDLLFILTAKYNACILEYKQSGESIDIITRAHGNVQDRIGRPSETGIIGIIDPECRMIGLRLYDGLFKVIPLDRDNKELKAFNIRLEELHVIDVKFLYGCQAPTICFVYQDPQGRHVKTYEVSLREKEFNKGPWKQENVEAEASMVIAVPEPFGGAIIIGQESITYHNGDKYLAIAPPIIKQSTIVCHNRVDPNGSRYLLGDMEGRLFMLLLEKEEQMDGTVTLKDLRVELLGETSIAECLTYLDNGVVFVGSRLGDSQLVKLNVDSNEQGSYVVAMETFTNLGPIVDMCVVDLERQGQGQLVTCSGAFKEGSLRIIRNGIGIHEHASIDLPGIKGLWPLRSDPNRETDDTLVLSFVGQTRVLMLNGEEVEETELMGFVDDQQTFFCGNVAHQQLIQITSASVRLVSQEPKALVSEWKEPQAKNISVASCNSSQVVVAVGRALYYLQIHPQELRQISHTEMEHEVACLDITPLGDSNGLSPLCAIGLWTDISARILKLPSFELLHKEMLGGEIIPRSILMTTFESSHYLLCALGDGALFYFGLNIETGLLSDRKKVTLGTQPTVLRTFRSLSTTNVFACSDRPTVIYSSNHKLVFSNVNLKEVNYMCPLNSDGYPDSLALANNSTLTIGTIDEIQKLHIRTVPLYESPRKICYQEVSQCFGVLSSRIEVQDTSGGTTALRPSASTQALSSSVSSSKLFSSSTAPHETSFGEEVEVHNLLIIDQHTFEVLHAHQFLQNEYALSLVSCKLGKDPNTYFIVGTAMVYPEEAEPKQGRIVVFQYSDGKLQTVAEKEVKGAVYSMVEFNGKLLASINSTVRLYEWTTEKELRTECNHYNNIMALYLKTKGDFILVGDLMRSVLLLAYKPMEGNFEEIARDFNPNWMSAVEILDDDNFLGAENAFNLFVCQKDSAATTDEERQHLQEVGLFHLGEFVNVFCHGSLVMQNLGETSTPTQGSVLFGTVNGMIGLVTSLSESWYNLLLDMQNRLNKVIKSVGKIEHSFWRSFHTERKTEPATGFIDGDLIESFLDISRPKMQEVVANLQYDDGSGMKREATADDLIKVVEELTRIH
Procedure: as §1, §2, §3

[3] = biological target: T3, IKZF1 (Homo sapiens, UniProt Q13422+Q96SW2); experiment: Western-blot assay of substrate protein degradation in hPBMCs, IKZF1
T3 construct: endogenous in cells; host or cells: hPBMCs (Milecell Biotechnologies)
T3 sequence (Q13422 whole entry): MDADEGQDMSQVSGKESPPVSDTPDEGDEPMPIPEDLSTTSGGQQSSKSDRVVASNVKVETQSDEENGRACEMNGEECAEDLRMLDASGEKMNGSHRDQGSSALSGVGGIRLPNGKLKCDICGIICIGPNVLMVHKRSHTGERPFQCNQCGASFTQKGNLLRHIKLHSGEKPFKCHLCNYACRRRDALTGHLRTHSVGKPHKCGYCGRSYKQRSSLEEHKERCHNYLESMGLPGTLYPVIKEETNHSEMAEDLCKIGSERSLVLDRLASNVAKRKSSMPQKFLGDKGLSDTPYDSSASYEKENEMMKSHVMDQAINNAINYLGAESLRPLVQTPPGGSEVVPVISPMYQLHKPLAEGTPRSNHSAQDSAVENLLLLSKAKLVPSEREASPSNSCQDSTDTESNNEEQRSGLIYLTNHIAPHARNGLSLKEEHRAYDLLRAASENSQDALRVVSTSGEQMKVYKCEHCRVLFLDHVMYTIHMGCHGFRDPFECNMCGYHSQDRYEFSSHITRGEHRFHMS
T3 sequence (Q96SW2 whole entry): as the sequence (Q96SW2 whole entry) above
T3 sequence (Q16531 whole entry partner): as the sequence (Q16531 whole entry partner) above
Procedure: as §1, §2, §3

[4] = biological target: T4, CK1α (Homo sapiens, UniProt P48729+Q96SW2); experiment: Western-blot assay of substrate protein degradation in hPBMCs, CK1α
T4 construct: endogenous in cells; host or cells: hPBMCs (Milecell Biotechnologies)
T4 sequence (P48729 whole entry): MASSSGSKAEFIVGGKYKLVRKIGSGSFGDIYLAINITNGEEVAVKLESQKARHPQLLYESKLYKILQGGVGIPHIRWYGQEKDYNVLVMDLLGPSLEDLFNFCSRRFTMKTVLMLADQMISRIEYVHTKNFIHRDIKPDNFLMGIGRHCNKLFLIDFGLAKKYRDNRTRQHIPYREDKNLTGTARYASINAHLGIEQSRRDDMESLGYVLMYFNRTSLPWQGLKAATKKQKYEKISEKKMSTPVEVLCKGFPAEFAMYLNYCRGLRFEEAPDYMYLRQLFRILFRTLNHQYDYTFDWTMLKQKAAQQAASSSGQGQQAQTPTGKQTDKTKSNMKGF
T4 sequence (Q96SW2 whole entry): as the sequence (Q96SW2 whole entry) above
T4 sequence (Q16531 whole entry partner): as the sequence (Q16531 whole entry partner) above
Procedure: as §1, §2, §3

[5] = biological target: T5, IKZF2 (Homo sapiens, UniProt Q96SW2+Q9UKS7); experiment: Western-blot assay of substrate protein degradation in hPBMCs, IKZF2
T5 construct: endogenous in cells; host or cells: hPBMCs (Milecell Biotechnologies)
T5 sequence (Q9UKS7 whole entry): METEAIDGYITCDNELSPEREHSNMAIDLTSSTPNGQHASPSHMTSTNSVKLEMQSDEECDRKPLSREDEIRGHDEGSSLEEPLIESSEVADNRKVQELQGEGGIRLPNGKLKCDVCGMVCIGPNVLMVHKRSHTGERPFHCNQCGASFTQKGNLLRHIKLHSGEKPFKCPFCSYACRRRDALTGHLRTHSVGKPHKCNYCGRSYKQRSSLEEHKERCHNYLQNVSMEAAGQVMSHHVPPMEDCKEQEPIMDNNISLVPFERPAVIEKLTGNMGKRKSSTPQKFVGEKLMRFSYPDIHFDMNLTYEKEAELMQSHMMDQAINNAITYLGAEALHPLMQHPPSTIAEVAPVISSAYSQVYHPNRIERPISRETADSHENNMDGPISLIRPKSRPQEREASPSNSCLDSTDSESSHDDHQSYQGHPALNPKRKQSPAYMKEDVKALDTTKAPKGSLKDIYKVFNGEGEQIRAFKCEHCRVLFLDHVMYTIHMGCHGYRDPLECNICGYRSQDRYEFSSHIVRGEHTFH
T5 sequence (Q96SW2 whole entry): as the sequence (Q96SW2 whole entry) above
T5 sequence (Q16531 whole entry partner): as the sequence (Q16531 whole entry partner) above
Procedure: as §1, §2, §3

[6] = biological target: T6, WEE1 (Homo sapiens, UniProt P30291+Q96SW2); experiment: Western-blot assay of substrate protein degradation in hPBMCs, WEE1
T6 construct: endogenous in cells; host or cells: hPBMCs (Milecell Biotechnologies)
T6 sequence (P30291 whole entry): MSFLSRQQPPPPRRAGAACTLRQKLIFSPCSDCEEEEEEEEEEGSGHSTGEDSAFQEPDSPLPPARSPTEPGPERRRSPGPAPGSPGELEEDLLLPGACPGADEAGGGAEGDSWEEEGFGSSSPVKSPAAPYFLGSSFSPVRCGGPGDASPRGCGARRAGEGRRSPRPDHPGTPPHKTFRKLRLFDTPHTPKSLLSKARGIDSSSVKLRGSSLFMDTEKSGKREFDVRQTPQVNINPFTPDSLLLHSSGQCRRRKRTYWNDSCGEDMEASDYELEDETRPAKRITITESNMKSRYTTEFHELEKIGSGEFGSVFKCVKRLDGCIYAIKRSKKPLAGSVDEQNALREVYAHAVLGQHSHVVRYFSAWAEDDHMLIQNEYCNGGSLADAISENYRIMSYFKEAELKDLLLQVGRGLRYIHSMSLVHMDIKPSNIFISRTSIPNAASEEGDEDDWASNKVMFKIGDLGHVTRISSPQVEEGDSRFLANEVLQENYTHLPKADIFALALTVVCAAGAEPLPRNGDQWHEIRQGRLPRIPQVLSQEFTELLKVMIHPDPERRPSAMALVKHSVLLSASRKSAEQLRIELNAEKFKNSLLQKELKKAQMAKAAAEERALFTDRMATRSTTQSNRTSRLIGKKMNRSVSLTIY
T6 sequence (Q96SW2 whole entry): as the sequence (Q96SW2 whole entry) above
T6 sequence (Q16531 whole entry partner): as the sequence (Q16531 whole entry partner) above
Procedure: as §1, §2, §3

Structure (SMILES): O=C1CCC(N2C(=O)c3ccc(CN4CCN(c5cccc(Cl)n5)CC4)cc3C2=O)C(=O)N1 (stereo not drawn) [GT-06523, 5-((4-(6-chloropyridin-2-yl)piperazin-1-yl)methyl)-2-(2,6-dioxopiperidin-3-yl)isoindoline-1,3-dione]
- IKZF3 substrate protein remaining % [1]: B (80%< substrate protein remaining %≤ 100%)
- GSPT1 substrate protein remaining % [2]: A (0% ≤ substrate protein remaining % ≤ 80%)
- IKZF 1 substrate protein remaining % [3]: A (0% ≤ substrate protein remaining % ≤ 80%)
- CK1a substrate protein remaining % [4]: B (80%< substrate protein remaining %≤ 100%)
- IKZF2 substrate protein remaining % [5]: B (80%< substrate protein remaining %≤ 100%)
- Weel substrate protein remaining % [6]: B (80%< substrate protein remaining %≤ 100%)

Structure (SMILES): COc1ccccc1N1CCN(Cc2ccc3c(c2)C(=O)N(C2CCC(=O)NC2=O)C3=O)CC1 (stereo not drawn) [GT-06287, 2-(2,6-dioxopiperidin-3-yl)-5-((4-(2-methoxyphenyl)piperazin-1-yl)methyl)isoindoline-1,3-dione]
- IKZF3 substrate protein remaining % [1]: B (80%< substrate protein remaining %≤ 100%)
- GSPT1 substrate protein remaining % [2]: A (0% ≤ substrate protein remaining % ≤ 80%)
- IKZF 1 substrate protein remaining % [3]: B (80%< substrate protein remaining %≤ 100%)
- CK1a substrate protein remaining % [4]: B (80%< substrate protein remaining %≤ 100%)
- IKZF2 substrate protein remaining % [5]: B (80%< substrate protein remaining %≤ 100%)
- Weel substrate protein remaining % [6]: B (80%< substrate protein remaining %≤ 100%)

Structure (SMILES): O=C1CCC(N2C(=O)c3ccc(CN4CC5CCC(C4)N5c4cccc(Cl)c4Cl)cc3C2=O)C(=O)N1 (stereo not drawn) [GT-06693, 5-((8-(2,3-dichlorophenyl)-3,8-diazabicyclo[3.2.1]octan-3-yl)methyl)-2-(2,6-dioxopiperidin-3-yl)isoindoline-1,3-dione]
- IKZF3 substrate protein remaining % [1]: B (80%< substrate protein remaining %≤ 100%)
- GSPT1 substrate protein remaining % [2]: A (0% ≤ substrate protein remaining % ≤ 80%)
- IKZF 1 substrate protein remaining % [3]: B (80%< substrate protein remaining %≤ 100%)
- CK1a substrate protein remaining % [4]: B (80%< substrate protein remaining %≤ 100%)
- IKZF2 substrate protein remaining % [5]: A (0% ≤ substrate protein remaining % ≤ 80%)
- Weel substrate protein remaining % [6]: A (0% ≤ substrate protein remaining % ≤ 80%)

Structure (SMILES): O=C1CCC(N2C(=O)c3ccc(CN4CCN(c5ccc(Cl)cn5)CC4)cc3C2=O)C(=O)N1 (stereo not drawn) [GT-06524, 5-((4-(5-chloropyridin-2-yl)piperazin-1-yl)methyl)-2-(2,6-dioxopiperidin-3-yl)isoindoline-1,3-dione]
- IKZF3 substrate protein remaining % [1]: B (80%< substrate protein remaining %≤ 100%)
- GSPT1 substrate protein remaining % [2]: A (0% ≤ substrate protein remaining % ≤ 80%)
- IKZF 1 substrate protein remaining % [3]: A (0% ≤ substrate protein remaining % ≤ 80%)
- CK1a substrate protein remaining % [4]: B (80%< substrate protein remaining %≤ 100%)
- IKZF2 substrate protein remaining % [5]: B (80%< substrate protein remaining %≤ 100%)
- Weel substrate protein remaining % [6]: B (80%< substrate protein remaining %≤ 100%)

Structure (SMILES): Cc1cccc(N2CCN(Cc3ccc4c(c3)C(=O)N(C3CCC(=O)NC3=O)C4=O)CC2)n1 (stereo not drawn) [GT-06522, 2-(2,6-dioxopiperidin-3-yl)-5-((4-(6-methylpyridin-2-yl)piperazin-1-yl)methyl)isoindoline-1,3-dione]
- IKZF3 substrate protein remaining % [1]: B (80%< substrate protein remaining %≤ 100%)
- GSPT1 substrate protein remaining % [2]: A (0% ≤ substrate protein remaining % ≤ 80%)
- IKZF 1 substrate protein remaining % [3]: B (80%< substrate protein remaining %≤ 100%)
- CK1a substrate protein remaining % [4]: B (80%< substrate protein remaining %≤ 100%)
- IKZF2 substrate protein remaining % [5]: B (80%< substrate protein remaining %≤ 100%)
- Weel substrate protein remaining % [6]: B (80%< substrate protein remaining %≤ 100%)

Structure (SMILES): O=C1CCC(N2C(=O)c3ccc(CN4CCC(c5cccc(Cl)c5Cl)CC4)cc3C2=O)C(=O)N1 (stereo not drawn) [GT-06358, 5-((4-(2,3-dichlorophenyl)piperidin-1-yl)methyl)-2-(2,6-dioxopiperidin-3-yl)isoindoline-1,3-dione]
- IKZF3 substrate protein remaining % [1]: B (80%< substrate protein remaining %≤ 100%)
- GSPT1 substrate protein remaining % [2]: A (0% ≤ substrate protein remaining % ≤ 80%)
- IKZF 1 substrate protein remaining % [3]: A (0% ≤ substrate protein remaining % ≤ 80%)
- CK1a substrate protein remaining % [4]: B (80%< substrate protein remaining %≤ 100%)
- IKZF2 substrate protein remaining % [5]: A (0% ≤ substrate protein remaining % ≤ 80%)
- Weel substrate protein remaining % [6]: A (0% ≤ substrate protein remaining % ≤ 80%)

Structure (SMILES): Cc1ccc(N2CCN(Cc3ccc4c(c3)C(=O)N(C3CCC(=O)NC3=O)C4=O)CC2)c(C)c1 (stereo not drawn) [GT-06366, 5-((4-(2,4-dimethylphenyl)piperazin-1-yl)methyl)-2-(2,6-dioxopiperidin-3-yl)isoindoline-1,3-dione]
- IKZF3 substrate protein remaining % [1]: A (0% ≤ substrate protein remaining % ≤ 80%)
- GSPT1 substrate protein remaining % [2]: A (0% ≤ substrate protein remaining % ≤ 80%)
- IKZF 1 substrate protein remaining % [3]: B (80%< substrate protein remaining %≤ 100%)
- CK1a substrate protein remaining % [4]: B (80%< substrate protein remaining %≤ 100%)
- IKZF2 substrate protein remaining % [5]: A (0% ≤ substrate protein remaining % ≤ 80%)
- Weel substrate protein remaining % [6]: B (80%< substrate protein remaining %≤ 100%)

Structure (SMILES): O=C1CCC(N2C(=O)c3ccc(CN4CCC(c5noc6ccccc56)CC4)cc3C2=O)C(=O)N1 (stereo not drawn) [GT-06627, 5-((4-(benzo[d]isoxazol-3-yl)piperidin-1-yl)methyl)-2-(2,6-dioxopiperidin-3-yl)isoindoline-1,3-dione]
- IKZF3 substrate protein remaining % [1]: B (80%< substrate protein remaining %≤ 100%)
- GSPT1 substrate protein remaining % [2]: A (0% ≤ substrate protein remaining % ≤ 80%)
- IKZF 1 substrate protein remaining % [3]: B (80%< substrate protein remaining %≤ 100%)
- CK1a substrate protein remaining % [4]: B (80%< substrate protein remaining %≤ 100%)
- IKZF2 substrate protein remaining % [5]: B (80%< substrate protein remaining %≤ 100%)
- Weel substrate protein remaining % [6]: B (80%< substrate protein remaining %≤ 100%)

Structure (SMILES): O=C1CCC(N2C(=O)c3ccc(CN4CCN(c5cccnn5)CC4)cc3C2=O)C(=O)N1 (stereo not drawn) [GT-07844, 2-(2,6-dioxopiperidin-3-yl)-5-((4-(pyridazin-3-yl)piperazin-1-yl)methyl)isoindoline-1,3-dione]
- IKZF3 substrate protein remaining % [1]: A (0% ≤ substrate protein remaining % ≤ 80%)
- GSPT1 substrate protein remaining % [2]: B (80%< substrate protein remaining %≤ 100%)
- IKZF 1 substrate protein remaining % [3]: A (0% ≤ substrate protein remaining % ≤ 80%)
- CK1a substrate protein remaining % [4]: B (80%< substrate protein remaining %≤ 100%)
- IKZF2 substrate protein remaining % [5]: B (80%< substrate protein remaining %≤ 100%)
- Weel substrate protein remaining % [6]: B (80%< substrate protein remaining %≤ 100%)
